The nature of data set [1]: Inhibition of Candida albicans SC5314 chitin synthase using UDP-GlcNAc as substrate incubated for 1 hr.
The subject of data set [2] is Escherichia coli. The data set is described as follows: Antibacterial activity against Escherichia coli ATCC 25922 assessed as bacterial growth inhibition measured after 48 hrs by microdilution method. Type of data set: functional.
The target of data set [3] is T1, Phospho-N-acetylmuramoyl-pentapeptide-transferase (Escherichia coli K-12, UniProt P0A6W3).
T1 sequence (P0A6W3 whole entry): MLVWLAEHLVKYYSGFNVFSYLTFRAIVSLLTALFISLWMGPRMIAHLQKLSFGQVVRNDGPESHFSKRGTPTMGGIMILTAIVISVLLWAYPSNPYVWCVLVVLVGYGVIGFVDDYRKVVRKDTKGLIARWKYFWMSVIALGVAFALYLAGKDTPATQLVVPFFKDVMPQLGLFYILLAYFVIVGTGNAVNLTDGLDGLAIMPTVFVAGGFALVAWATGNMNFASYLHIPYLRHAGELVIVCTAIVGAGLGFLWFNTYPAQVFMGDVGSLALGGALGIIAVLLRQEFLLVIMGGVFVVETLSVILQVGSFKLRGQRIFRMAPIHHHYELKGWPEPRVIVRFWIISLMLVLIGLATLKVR
As to the kind of experiment: Inhibition of MraY in Escherichia coli K12.

In data set [4] the test system is Candida albicans. The data set is described as follows: Antifungal activity against Candida albicans assessed as inhibition of fungal growth. Type of data set: functional.
The subject of data set [5] is Aspergillus fumigatus. As to the kind of experiment: Antifungal activity against Aspergillus fumigatus assessed as inhibition of fungal growth. Type of data set: functional.
Data set [6] concerns Mycobacterium kansasii. As to the kind of experiment: Antimycobacterial activity against Mycobacterium kansasii assessed as microbial growth reduction. Type of data set: functional.
Data set [7] relates to Mycobacterium avium. The data set is described as follows: Antimycobacterial activity against Mycobacterium avium assessed as microbial growth reduction. Type of data set: functional.
Data set [8] deals with Mycobacterium intracellulare. As to the kind of experiment: Antimycobacterial activity against Mycobacterium intracellulare assessed as microbial growth reduction. Type of data set: functional.
The subject of data set [9] is Pseudomonas aeruginosa. As to the kind of experiment: Antimicrobial activity against Pseudomonas aeruginosa M35 assessed as reduction in microbial growth. Type of data set: functional.
The nature of data set [10]: Inhibition of Bacterial MraY. Details: species or system Bacteria.
Data set [11] deals with Enterococcus faecalis. As to the kind of experiment: Antimicrobial activity against Enterococcus faecalis 10785 assessed as reduction in microbial growth by broth microdilution method. Type of data set: functional. A general note: In broth dilution the organism is exposed to a series of concentrations in liquid medium.
Data set [12] is described as follows: Cytotoxicity against human HepG2 cells assessed as reduction in cell viability incubated for 72 hrs by MTT assay. Type of data set: toxicity, cell-based. A general note: Formazan colour is commonly taken as a measure of viable cells.
The subject of data set [13] is Staphylococcus aureus. As to the kind of experiment: Antimicrobial activity against methicillin-resistant Staphylococcus aureus assessed as reduction in microbial growth by broth microdilution method. Type of data set: functional.
In data set [14] the test system is Cryptococcus neoformans. The data set is described as follows: Antifungal activity against Cryptococcus neoformans assessed as fungal growth inhibition measured after 24 hrs by micro broth dilution method. Type of data set: functional.
Data set [15] deals with Candida albicans. The data set is described as follows: Antifungal activity against Candida albicans assessed as fungal growth inhibition measured after 24 hrs by micro broth dilution method. Type of data set: functional.
For data set [16], the system named is Aspergillus fumigatus. The data set is described as follows: Antifungal activity against Aspergillus fumigatus assessed as fungal growth inhibition. Type of data set: functional.
In data set [17] the test system is Pseudomonas aeruginosa. As to the kind of experiment: Antibacterial activity against Pseudomonas aeruginosa assessed as bacterial growth inhibition. Type of data set: functional.

Converted amounts (≈) assume the structure as drawn. Some results are limits rather than exact numbers.

The IC50 is the concentration that gives 50% inhibition. Usually MIC stands for the lowest concentration found to suppress growth.

In turn, `N[C@@H](Cc1cc2ccccc2c2ccccc12)C(=O)N[C@@H](C(=O)O)[C@H]1O[C@@H](n2ccc(=O)[nH]c2=O)[C@H](O)[C@@H]1O` gave an IC50 in [1] of 0.31 µg/mL (≈ 0.58 µM).

As to `CCCCCCCNC[C@@H](O[C@@H]1O[C@H](CN)[C@@H](O)[C@H]1O)[C@H]1O[C@@H](n2ccc(=O)[nH]c2=O)[C@H](O)[C@@H]1O`, the MIC in data set [2] turned out to be 2.5 µg/mL (≈ 4.97 µM). This molecule also displayed an IC50 in data set [3] of 330 nM.

Consider `O=C(OC[C@H]1O[C@@H](n2ccc(=O)[nH]c2=O)[C@H](O)[C@@H]1O)c1ccccc1O`, for which the MIC in data set [4] and in data set [5] was 1000 µg/mL (≈ 2740 µM) each time.

Regarding `CCCCCCCCCCCCCCC(=O)O[C@@H]1[C@H](OC)[C@@H]([C@@H](O[C@@H]2OC(C(=O)N[C@H]3CCC[C@@H](C)NC3=O)=C[C@@H](O)[C@H]2O)C(N)=O)O[C@H]1n1ccc(=O)[nH]c1=O`, the MIC in [6], in data set [7] and in data set [8] was 0.063 µg/mL (≈ 0.078 µM) each time.

As for `CSCC[C@H](NC(=O)N[C@@H](Cc1cccc(O)c1)C(=O)O)C(=O)NC(CN(C)C(=O)C1Cc2ccc(O)cc2CN1)C(=O)N/C=C1/C[C@@H](O)[C@H](N2CCC(=O)NC2=O)O1` (stereo partly drawn), the MIC in data set [9] came to 6.25 µg/mL.

Molecule `CCCCCCCCCCCCCCC[C@@H](NC(=O)[C@@H](NC(=O)N[C@H](C(=O)O)C(C)C)[C@@H]1CCNC(=N)N1)C(=O)NCCCNC(C(=O)O)[C@H](O[C@@H]1O[C@H](CN)[C@@H](O)[C@H]1O)[C@H]1O[C@@H](n2ccc(=O)[nH]c2=O)[C@H](O)[C@@H]1O` (stereo partly drawn) returned an IC50 in [10] of 740 nM. Besides, the figures for the MIC in data set [11] and in [13] were 0.25 µg/mL and 2 µg/mL, respectively. Moreover, the half-inhibitory concentration (IC50) at 72 h in data set [12] was greater than 100 µg/mL.

Consider `C=CCSC[C@H]1O[C@@H](n2cnc3c([N+](=O)[O-])cccc32)[C@H](O)[C@@H]1O`, for which the MIC in data set [14], in [15] and in data set [16] was 0.19 µM (≈ 0.0668 µg/mL) each time.

In the case of `CCOC(=O)CCSC[C@H]1O[C@@H](n2cnc3c(N)cccc32)[C@H](O)[C@@H]1O`, the minimum inhibitory concentration (MIC) in data set [14], in data set [15] and in data set [16] was 0.19 µM (≈ 0.0725 µg/mL) throughout.

For `NC(=O)c1ncn([C@@H]2O[C@H](CO)[C@@H](O)[C@H]2O)n1` [RIBAVIRIN], the MIC in data set [17] amounted to 3 µg/mL (≈ 12.3 µM).

Consider `CCCCCCCCCCCCCNC[C@@H](O[C@@H]1O[C@H](CN)[C@@H](O)[C@H]1O)[C@H]1O[C@@H](n2ccc(=O)[nH]c2=O)[C@H](O)[C@@H]1O`, for which the MIC in data set [2] worked out at 2.5 µg/mL (≈ 4.26 µM). The same molecule yielded an IC50 in [3] of 330 nM.

In the case of `CCCCCCCCCCCNC[C@@H](O[C@@H]1O[C@H](CN)[C@@H](O)[C@H]1O)[C@H]1O[C@@H](n2ccc(=O)[nH]c2=O)[C@H](O)[C@@H]1O`, the MIC in [2] turned out to be 2.5 µg/mL (≈ 4.47 µM). Moreover, the IC50 in data set [3] is 330 nM.

Regarding `CSCC[C@H](NC(=O)N[C@@H](Cc1cccc(O)c1)C(=O)O)C(=O)NC(CN(C)C(=O)C1Cc2ccc(O)cc2CN1)C(=O)N/C=C1/C[C@@H](O)[C@H](n2ccc(=O)[nH]c2=O)O1` (stereo partly drawn), the minimum inhibitory concentration (MIC) in [9] came out at 6.25 µg/mL.

With `CCCCNC[C@@H](O[C@@H]1O[C@H](CN)[C@@H](O)[C@H]1O)[C@H]1O[C@@H](n2ccc(=O)[nH]c2=O)[C@H](O)[C@@H]1O`, the MIC in [2] was 2.5 µg/mL (≈ 5.43 µM). In data set [3], this molecule had an IC50 of 330 nM.

For the molecule `CSCC[C@H](NC(=O)N[C@@H](Cc1cccc(O)c1)C(=O)O)C(=O)NC(CN(C)C(=O)C1Cc2ccc(O)cc2C(C)N1)C(=O)N/C=C1/C[C@@H](O)[C@H](N2CCC(=O)NC2=O)O1` (stereo partly drawn), the MIC in [9] is 6.25 µg/mL.

`CC(C)[C@H](O)[C@H](N)C(=O)NCCCN[C@H](C(=O)OC(C)(C)C)[C@@H](O)[C@H]1O[C@@H](n2ccc(=O)[nH]c2=O)[C@H](O[Si](C)(C)C(C)(C)C)[C@@H]1O[Si](C)(C)C(C)(C)C`: the MIC in data set [11] and in data set [13] was 1 µg/mL in each case.

As to `CCC(C)CCCCCCC/C(C)=C/C(C)=C/C(=O)NCC(=O)N[C@H]1[C@H](OP(=O)(O)OC(C(=O)O)C(C[C@H]2O[C@@H](n3ccc(=O)[nH]c3=O)[C@H](O)[C@@H]2O)O[C@@H]2O[C@H](CO)[C@@H](O)[C@H](O)[C@H]2O)O[C@H](CO)[C@@H](O)[C@@H]1O` (stereo partly drawn), the midpoint of inhibition in data set [10], the IC50, lay at 1100 nM. Moreover, the figures for the MIC in [11] and in data set [13] were 50 µg/mL and 100 µg/mL, respectively.

(Values after ChEMBL document CHEMBL5257035, “Nucleoside Derived Antibiotics to Fight Microbial Drug Resistance: New Utilities for an Established Class of Drugs?” (J Med Chem, 2016).)
